Tests used:
[1] = Solid-state stability of prior-art amorphous dasatinib under stability conditions; type: physicochemical; conditions: amorphous dasatinib having higher residual solvents (prior art process), subjected to stability conditions
Method: Therefore, the prior art process provides amorphous dasatinib containing higher amount of residual solvent which is not suitable for pharmaceutical developments.
As used herein, the term “stable dasatinib” includes either: amorphous dasatinib that after exposure to a relative humidity of 75% at 40° C. or 60% at 25° C., for a period of at least three months contains less than about 0.5% (wt/wt) total impurities and doesn't change to crystalline form.

[2] = in water or organic solvents like methanol, ethanol, propanol, isopropanol, butanol; even in the condition of heating; cited from earlier work

| solid form stability (amorphous to crystalline conversion) [1] | SMILES | solubility [2] |
| --- | --- | --- |
| converts to crystalline form | Cc1nc(Nc2ncc(C(=O)Nc3c(C)cccc3Cl)s2)cc(N2CCN(CCO)CC2)n1 [amorphous dasatinib] | – |
| – | Cc1nc(Nc2ncc(C(=O)Nc3c(C)cccc3Cl)s2)cc(N2CCN(CCO)CC2)n1 [Dasatinib, N-(2-chloro-6-methylphenyl)-2-[[6-[4-(2-hydroxyethyl)-1-piperazinyl]-2-methyl-4-pyrimidinyl]amino]-5-thiazolecarboxamide] | practically insoluble |

Reference: patent US9249134B2, “Process for preparation of amorphous form of dasatinib” (CADILA HEALTHCARE LIMITED, priority 2013, dated 2016)
